Earlier results, collected in US8188116B2, “Agents for therapy efficacy monitoring and deep tissue imaging” (Vanderbilt University, priority 2002, dated 2012).

Test system: PBR
Settings: in words, background statement

SMILES: COc1ccc(OC)c(CN(C(C)=O)c2cc(F)ccc2Oc2ccccc2)c1 [DAA1106]
- binding affinity for PBR: fentomolar
